The target in experiment [1] is T1, fusion protein containing GAL4-DNA-binding domain and ERR full-length (Homo sapiens, UniProt P11474).
T1 construct: expressed in transfected cells; host or cells: 293T cells
T1 sequence (P11474 1-423): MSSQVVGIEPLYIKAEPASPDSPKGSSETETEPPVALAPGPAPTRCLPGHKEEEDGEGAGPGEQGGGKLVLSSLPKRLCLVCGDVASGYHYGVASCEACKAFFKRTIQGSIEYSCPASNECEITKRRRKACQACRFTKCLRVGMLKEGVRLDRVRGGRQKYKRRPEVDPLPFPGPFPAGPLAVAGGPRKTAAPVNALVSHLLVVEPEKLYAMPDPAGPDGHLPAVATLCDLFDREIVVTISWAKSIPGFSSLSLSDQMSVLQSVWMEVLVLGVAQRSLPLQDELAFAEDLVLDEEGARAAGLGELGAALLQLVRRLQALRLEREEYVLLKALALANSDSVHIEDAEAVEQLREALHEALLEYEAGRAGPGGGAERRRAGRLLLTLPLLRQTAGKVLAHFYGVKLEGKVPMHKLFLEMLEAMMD
Nature of the experiment: Reporter assay system using 293T cells (GAL4-ERR luciferase, inverse agonist activity). The experiment is classed as cell-based. The settings on record: compound final concentration 3 μM, no compound = 0%, 10 μM XCT-790 = 100%; for inhibition at 3 µM: HEK-293T, read-out: inhibition rate (%) at 3 μM. The protocol:
Experimental Example 2 Compound Evaluation in Reporter Assay System Using 293T Cells
293T cells derived from human kidney were seeded in a 150 cm^2 flask by 6,000,000 cells, and cultured in a medium (DMEM medium containing 10% inactivated Fetal Bovine Serum sterile filtered (FBS), […] Gentamicin, 10 mM HEPES buffer (pH 7.4)) at 37° C. in the presence of 5% CO2 for 1 day.
Then, vector DNA having a gene encoding a fusion protein, containing GAL4-DNA-binding domain and ERR full-length and a vector DNA wherein luciferase gene is fused at the downstream of GAL4-binding-sequence were cotransfected by a lipofection method, and the cells were cultured at 37° C. in the presence of 5% CO2 for 1 day. The cells were recovered, sown in a 384 well plate by 15,000 cells, and cultured at 37° C. in the presence of 5% CO2 for 3 hrs. Furthermore, 50 μM N-[5-(trifluoromethyl)-1,3,4-thiadiazol-2-yl]-2-cyano-3-[3-methoxy-4-[2,4-di(trifluoromethyl)benzyloxy]phenyl]propenamide (XCT-790) (final concentration 10 μM) or 15 μM compound (final concentration 3 μM) was added, and the cells were cultured at 37° C. in the presence of 5% CO2 for 1 day. The luciferase activity was measured by using multiplate reader Envision (Perkin Elmer Inc.). The inverse agonist activity of the compound was calculated in percentage with the luciferase activity inhibited by no addition of compound as 0%, and with addition of final concentration 10 μM of XCT-790 as 100%.
A general note: A reporter such as luciferase makes a cellular process visible.

The target in experiment [2] is T2, GST-ERR-α ligand-binding domain (Homo sapiens, UniProt P11474).
T2 sequence (P11474 193-421 limits assumed): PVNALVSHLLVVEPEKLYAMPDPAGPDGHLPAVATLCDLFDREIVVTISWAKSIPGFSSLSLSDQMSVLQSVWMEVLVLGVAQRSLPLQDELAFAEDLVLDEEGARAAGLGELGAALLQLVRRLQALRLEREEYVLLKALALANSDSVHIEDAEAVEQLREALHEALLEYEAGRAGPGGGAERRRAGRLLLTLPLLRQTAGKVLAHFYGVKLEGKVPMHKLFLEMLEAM
Nature of the experiment: HTRF assay system using ERR-α ligand-binding domain (inverse agonist activity, biotinylated SRC-1 (676-700) peptide). In kind it is biochemical. Particulars: compound final concentration 30 μM, 665/620 ratio, no compound = 0%, 10 μM XCT-790 = 100%; for inhibition at 30 µM: read-out: inhibition rate (%) at 30 μM. The method, then:
Experimental Example 1 Compound Evaluation in HTRF Assay System Using ERR-α Ligand-Binding Domain
An assay buffer (25 mM HEPES, 100 mM NaCl, 1 mM DTT, 0.1% BSA) containing 5 nM GST-ERR-α ligand-binding domain (final concentration 1.25 nM) was added to a 384 well plate, then 40 μM N-[5-(trifluoromethyl)-1,3,4-thiadiazol-2-yl]-2-cyano-3-[3-methoxy-4-[2,4-di(trifluoromethyl)benzyloxy]phenyl]propenamide (XCT-790) (final concentration 10 μM), or 120 μM compound (final concentration 30 μM) was added. Furthermore, an assay buffer containing XL665 conjugated Streptavidin, Eu^3+ criptate conjugated GST antibody and 200 nM biotinylated SRC-1 (676-700) (final concentration 100 nM) was added, and the mixture was reacted at room temperature for 2 hr. Using Multiplate reader Envision (Perkin Elmer Inc.), after excitation at 320 nm, fluorescence values at 620 nm and 665 nm were measured. The inverse agonist activity of the compound was calculated in percentage with the 665/620 ratio value inhibited by no addition of compound as 0%, and with addition of final concentration 10 μM of XCT-790 as 100%.

Molecules are shown by their SMILES. Structures can show the parent of a compound that is named as a salt.

`CNC1=NC(=O)S/C1=C\[C@@H]1C[C@H]2CC[C@@H](C1)N2Cc1ccc(C(F)(F)F)cc1C(F)(F)F` [Example 15, (5Z)-5-({(3-exo)-8-[2,4-bis(trifluoromethyl)benzyl]-8-azabicyclo[3.2.1]oct-3-yl}methylidene)-4-(methylamino)-1,3-thiazol-2(5H)-one]: the inhibition – broadly, the relative decrease from the control value, in per cent – at 3 µM in experiment [1] amounted to 88%. Besides, in experiment [2], the inhibition at 30 µM stood at 102%.

As for `O=C1N=C(NCC2CC2)/C(=C/C2CCN(Cc3ccc(C(F)(F)F)cc3C(F)(F)F)CC2)S1` [Example 61, (5Z)-5-({1-[2,4-bis(trifluoromethyl)benzyl]piperidin-4-yl}methylidene)-4-[(cyclopropylmethyl)amino]-1,3-thiazol-2(5H)-one fumarate], in experiment [1], the inhibition at 3 µM came to 90%. Also, the inhibition at 30 µM in experiment [2] came out at 95%.

Take `CNC1=NC(=O)S/C1=C\C1CCN(Cc2ccc(C(F)(F)F)cc2C(F)(F)F)CC1` [Example 3, (5Z)-5-({1-[2,4-bis(trifluoromethyl)benzyl]piperidin-4-yl}methylidene)-4-(methylamino)-1,3-thiazol-2(5H)-one]: in experiment [1], the inhibition at 3 µM was 88%.

As for `CCN(CC)CCNC1=NC(=O)S/C1=C\C1CCN(Cc2ccc(C(F)(F)F)cc2C(F)(F)F)CC1` [Example 9, (5Z)-5-({1-[2,4-bis(trifluoromethyl)benzyl]piperidin-4-yl}methylidene)-4-{[2-(diethylamino)ethyl]amino}-1,3-thiazol-2(5H)-one dihydrochloride], the inhibition at 3 µM in experiment [1] stood at 88%. The inhibition at 30 µM in experiment [2] stood at 107%.

On to `C#CCNC1=NC(=O)S/C1=C\C1CCN(Cc2ccc(C(F)(F)F)cc2Cl)CC1` [Example 59, (5Z)-5-({1-[2-chloro-4-(trifluoromethyl)benzyl]piperidin-4-yl}methylidene)-4-(prop-2-yn-1-ylamino)-1,3-thiazol-2(5H)-one fumarate], for which the inhibition at 3 µM in experiment [1] was 67%. Further, the inhibition at 30 µM in experiment [2] came to 49%.

Take `CCNC1=NC(=O)S/C1=C\C1CCN(Cc2ccc(C(F)(F)F)cc2C(F)(F)F)CC1` [Example 199, (5Z)-5-({1-[2,4-bis(trifluoromethyl)benzyl]piperidin-4-yl}methylidene)-4-(ethylamino)-1,3-thiazol-2(5H)-one]: the inhibition at 3 µM in experiment [1] is 84%. For the same compound, the inhibition at 30 µM in experiment [2] amounted to 101%.

For `O=C1N=C(NC2COC2)/C(=C/C2CCN(Cc3ccc(C(F)(F)F)cc3C(F)(F)F)CC2)S1` [Example 20, (5Z)-5-({1-[2,4-bis(trifluoromethyl)benzyl]piperidin-4-yl}methylidene)-4-(oxetan-3-ylamino)-1,3-thiazol-2(5H)-one], the inhibition at 3 µM in experiment [1] turned out to be 95%. For the same compound, the inhibition at 30 µM in experiment [2] worked out at 105%.

With `CNC1=NC(=O)N(C)/C1=C\C1CCN(Cc2ccc(C(F)(F)F)cc2C(F)(F)F)CC1` [Example 80, (5Z)-5-({1-[2,4-bis(trifluoromethyl)benzyl]piperidin-4-yl}methylidene)-1-methyl-4-(methylamino)-1,5-dihydro-2H-imidazol-2-one], the inhibition at 3 µM in experiment [1] was 86%. Further, the inhibition at 30 µM in experiment [2] came to 105%.

As for `CNC1=NC(=O)S/C1=C\C1CCN(Cc2ccc(C(F)(F)F)cc2C(F)(F)F)CC1` [Example 37, (5Z)-5-({1-[2,4-bis(trifluoromethyl)benzyl]piperidin-4-yl}methylidene)-4-(methylamino)-1,3-thiazol-2(5H)-one fumarate], the inhibition at 30 µM in experiment [2] is 109%.

As for `O=C1N=C(NCC(O)CO)/C(=C/C2CCN(Cc3ccc(C(F)(F)F)cc3C(F)(F)F)CC2)S1` (stereo not shown) [Example 56, (5Z)-5-({1-[2,4-bis(trifluoromethyl)benzyl]piperidin-4-yl}methylidene)-4-[(2,3-dihydroxypropyl)amino]-1,3-thiazol-2(5H)-one], in experiment [1], the inhibition at 3 µM was determined as 91%. In addition, in experiment [2], the inhibition at 30 µM amounted to 106%.

`CN(C)C(=O)CCNC1=NC(=O)S/C1=C\C1CCN(Cc2ccc(C(F)(F)F)cc2C(F)(F)F)CC1` [Example 140, N^3-[(5Z)-5-({1-[2,4-bis(trifluoromethyl)benzyl]piperidin-4-yl}methylidene)-2-oxo-2,5-dihydro-1,3-thiazol-4-yl]-N,N-dimethyl-β-alaninamide]: the inhibition at 3 µM in experiment [1] came to 90%. The inhibition at 30 µM in experiment [2] turned out to be 100%.

`CN(C)C(=O)[C@H](CO)NC1=NC(=O)S/C1=C\C1CCN(Cc2ccc(C(F)(F)F)cc2C(F)(F)F)CC1` [Example 132, N^2-[(5Z)-5-({1-[2,4-bis(trifluoromethyl)benzyl]piperidin-4-yl}methylidene)-2-oxo-2,5-dihydro-1,3-thiazol-4-yl]-N,N-dimethyl-L-serinamide]: the inhibition at 3 µM in experiment [1] turned out to be 78%. The inhibition at 30 µM in experiment [2] came out at 102%.

On to `O=C1N=C(NCCOCCO)/C(=C/C2CCN(Cc3ccc(C(F)(F)F)cc3C(F)(F)F)CC2)S1` [Example 8, (5Z)-5-({1-[2,4-bis(trifluoromethyl)benzyl]piperidin-4-yl}methylidene)-4-{[2-(2-hydroxyethoxy)ethyl]amino}-1,3-thiazol-2(5H)-one], for which, in experiment [1], the “inhibition rate (%) at 3 μM” value amounted to 87%. Moreover, the “inhibition rate (%) at 30 μM” value in experiment [2] came to 97%.

As for `COCCOCCNC1=NC(=O)S/C1=C\C1CCN(Cc2ccc(C(F)(F)F)cc2C(F)(F)F)CC1` [Example 39, (5Z)-5-({1-[2,4-bis(trifluoromethyl)benzyl]piperidin-4-yl}methylidene)-4-{[2-(2-methoxyethoxy)ethyl]amino}-1,3-thiazol-2(5H)-one], in experiment [1], the inhibition at 3 µM was 85%. In addition, the inhibition at 30 µM in experiment [2] came to 106%.

Consider `CCN(CC)CCOCCNC1=NC(=O)S/C1=C\C1CCN(Cc2ccc(C(F)(F)F)cc2C(F)(F)F)CC1` [Example 47, (5Z)-5-({1-[2,4-bis(trifluoromethyl)benzyl]piperidin-4-yl}methylidene)-4-({2-[2-(diethylamino)ethoxy]ethyl}amino)-1,3-thiazol-2(5H)-one ditosylate], for which the inhibition at 3 µM in experiment [1] turned out to be 90%. In addition, the inhibition at 30 µM in experiment [2] amounted to 108%.

Regarding `C#CCNC1=NC(=O)S/C1=C\C1CCN(Cc2ccc(C(F)(F)F)cc2C(F)(F)F)CC1` [Example 16, (5Z)-5-({1-[2,4-bis(trifluoromethyl)benzyl]piperidin-4-yl}methylidene)-4-(prop-2-yn-1-ylamino)-1,3-thiazol-2(5H)-one hydrochloride], the inhibition at 3 µM in experiment [1] came to 89%. The inhibition at 30 µM in experiment [2] came out at 112%.

As to `CC(C)(O)C#CCNC1=NC(=O)S/C1=C\C1CCN(Cc2ccc(C(F)(F)F)cc2C(F)(F)F)CC1` [Example 87, (5Z)-5-({1-[2,4-bis(trifluoromethyl)benzyl]piperidin-4-yl}methylidene)-4-[(4-hydroxy-4-methylpent-2-yn-1-yl)amino]-1,3-thiazol-2(5H)-one], in experiment [1], the inhibition at 3 µM came to 88%.
